Test results taken from article PMC5421785, “Citrullination only infrequently impacts peptide binding to HLA class II MHC” (PLoS ONE, 2017).
Like-named read-outs stand apart in the source and are kept apart here. Square brackets hold non-standard residues; d marks the D form. Peptide text beside a SMILES is read from it. Cit = NC(=O)NCCC[C@H](N)C(=O)O

What was measured:
[1] = target: T1, HLA-DRB1*01:01 (Homo sapiens, UniProt P01903+P01911, A100R/D57E/F55L/F60I/F76Y/I96L/L162R/M171V/P40L/Q125E/R42F/V115G/Y59C); test: HLA class II peptide binding, inhibition of radiolabeled peptide binding to purified MHC; settings: for DRB1*01:01 binding capacity, WT/cit ratio: ratio of WT IC50 to Cit IC50, >1 = citrullination increases binding
T1 construct: EBV transformed homozygous cell lines were used as sources of MHC molecules; endogenous in cells; host or cells: EBV transformed homozygous cell lines

[2] = target: T2, HLA-DRB1*04:01 (Homo sapiens, UniProt P01903+P01911, A100K/A169T/F76Y/I96L/K127E/L162R/M171V/N62H/P40V/Q125Y/R42H/S133A/S149N/S66Y/V115G/V209L/W38E); test: as above; settings: for DRB1*04:01 binding capacity, WT/cit ratio: ratio of WT IC50 to Cit IC50, >1 = citrullination increases binding
T2 construct: EBV transformed homozygous cell lines were used as sources of MHC molecules; endogenous in cells; host or cells: EBV transformed homozygous cell lines

[3] = citrullinated 15-mer (X), purified MHC, inhibition of radiolabeled peptide binding, dash = IC50 >40,000 nM, read-out: DRB1*01:01 binding capacity, Cit peptide (IC50 nM)
[4] = citrullinated 15-mer (X), purified MHC, inhibition of radiolabeled peptide binding, dash = IC50 >40,000 nM, read-out: DRB1*04:01 binding capacity, Cit peptide (IC50 nM)
[5] = citrullinated 15-mer peptide (X = citrulline), purified HLA-DRB1*01:01, read-out: DRB1*01:01 binding capacity, Cit peptide (IC50 nM)
[6] = citrullinated 15-mer peptide (X = citrulline), purified HLA-DRB1*04:01, read-out: DRB1*04:01 binding capacity, Cit peptide (IC50 nM)

SMILES	IC50 [1, 3] [nM]	IC50 [2, 4] [nM]	IC50 [1, 5] [nM]	IC50 [2, 6] [nM]	other results
CC(C)[C@H](NC(=O)[C@H](Cc1ccc(O)cc1)NC(=O)[C@H](CO)NC(=O)[C@H](CCCNC(=N)N)NC(=O)[C@H](CO)NC(=O)[C@H](CO)NC(=O)[C@H](CO)NC(=O)[C@@H]1CCCN1C(=O)[C@H](CCCNC(N)=O)NC(=O)[C@H](CO)NC(=O)[C@H](C)N)C(=O)N[C@H](C(=O)N[C@H](C(=O)N[C@@H](CO)C(=O)N[C@H](C(=O)O)[C@@H](C)O)[C@@H](C)O)[C@@H](C)O [ASXPSSSRSYVTTST] (H-AS[Cit]PSSSRSYVTTST-OH)	5560	757	–	–	–
CC(C)C[C@H](NC(=O)[C@H](CCCNC(N)=O)NC(=O)[C@H](C)N)C(=O)N[C@@H](CC(=O)O)C(=O)N[C@@H](CC(C)C)C(=O)N[C@@H](CCC(=O)O)C(=O)N[C@@H](CCCNC(=N)N)C(=O)N[C@@H](CCCCN)C(=O)N[C@H](C(=O)N[C@@H](CCC(=O)O)C(=O)N[C@@H](CO)C(=O)N[C@@H](CC(C)C)C(=O)N[C@@H](CCC(N)=O)C(=O)N[C@@H](CCC(=O)O)C(=O)N[C@@H](CCC(=O)O)C(=O)O)C(C)C [AXLDLERKVESLQEE] (H-A[Cit]LDLERKVESLQEE-OH)	5290	9150	–	–	–
CC[C@H](C)[C@H](NC(=O)CNC(=O)[C@H](CCCNC(=N)N)NC(=O)[C@H](CCC(N)=O)NC(=O)CNC(=O)[C@H](C)NC(=O)[C@H](CC(C)C)NC(=O)CNC(=O)[C@H](CCC(N)=O)NC(=O)[C@@H]1CCCN1C(=O)CNC(=O)[C@@H]1CCCN1)C(=O)N[C@H](C(=O)NCC(=O)N[C@@H](CC(C)C)C(=O)O)C(C)C [Collagen 971 WT]	–	–	–	–	IC50 ([1]; wild-type (unmodified Arg) 15-mer peptide, purified HLA-DRB1*01:01, read-out: DRB1*01:01 binding capacity, WT peptide (IC50 nM)): 7.9 nM; IC50 ([2]; wild-type (unmodified Arg) 15-mer peptide, purified HLA-DRB1*04:01, read-out: DRB1*04:01 binding capacity, WT peptide (IC50 nM)): 7160 nM
CSCC[C@H](NC(=O)[C@H](CCC(N)=O)NC(=O)[C@H](CCCNC(=N)N)NC(=O)[C@H](CCC(=O)O)NC(=O)[C@H](CC(C)C)NC(=O)[C@H](CO)NC(=O)[C@H](CCC(=O)O)NC(=O)[C@H](CC(N)=O)NC(=O)[C@@H](NC(=O)CNC(=O)[C@H](CCCCN)NC(=O)[C@H](CC(C)C)NC(=O)[C@H](C)NC(=O)[C@@H](N)CC(=O)O)[C@@H](C)O)C(=O)N[C@@H](CCCNC(N)=O)C(=O)O [DALKGTNESLERQMX] (H-DALKGTNESLERQM[Cit]-OH)	–	–	24200	17500	–
CC[C@H](C)[C@H](NC(=O)[C@H](CO)NC(=O)[C@H](CCC(=O)O)NC(=O)[C@@H](NC(=O)[C@H](CCC(N)=O)NC(=O)[C@H](CC(N)=O)NC(=O)[C@H](CC(N)=O)NC(=O)[C@H](CC(C)C)NC(=O)[C@H](CO)NC(=O)[C@H](CCCCN)NC(=O)[C@H](CC(C)C)NC(=O)[C@@H](NC(=O)[C@H](C)NC(=O)[C@@H](N)CC(=O)O)[C@@H](C)O)[C@@H](C)CC)C(=O)N[C@@H](CCCNC(N)=O)C(=O)O [DATLKSLNNQIESIX] (H-DATLKSLNNQIESI[Cit]-OH)	–	–	–	–	IC50 ([1]; citrullinated peptide as listed (X at Cit position), read-out: DRB1*01:01 binding capacity Cit peptide (IC50 nM)): 9.4 nM; IC50 ([2]; citrullinated peptide as listed (X at Cit position), read-out: DRB1*04:01 binding capacity Cit peptide (IC50 nM)): 1390 nM
CC(C)C[C@H](NC(=O)CNC(=O)[C@@H](N)CC(=O)O)C(=O)N[C@@H](C)C(=O)NCC(=O)N1CCC[C@H]1C(=O)N[C@@H](CCCCN)C(=O)NCC(=O)N[C@@H](C)C(=O)N1CCC[C@H]1C(=O)NCC(=O)N[C@@H](CCC(=O)O)C(=O)N[C@@H](CCCNC(N)=O)C(=O)NCC(=O)N1CCC[C@H]1C(=O)O [DGLAGPKGAPGEXGP] (H-DGLAGPKGAPGE[Cit]GP-OH)	–	–	1120	> 40000	–
C[C@H](NC(=O)CNC(=O)[C@H](CCCCN)NC(=O)[C@@H]1CCCN1C(=O)CNC(=O)[C@@H](N)CC(=O)O)C(=O)N[C@@H](CCCNC(N)=O)C(=O)NCC(=O)N[C@@H](CC(=O)O)C(=O)N[C@@H](CO)C(=O)NCC(=O)N1CCC[C@H]1C(=O)N1CCC[C@H]1C(=O)NCC(=O)N[C@@H](CCCNC(=N)N)C(=O)O [DGPKGAXGDSGPPGR] (H-DGPKGA[Cit]GDSGPPGR-OH; N-terminus and C-terminus assumed)	–	–	> 40000	> 40000	DRB1*01:01 binding capacity, WT/cit ratio [1]: 0.533; DRB1*04:01 binding capacity, WT/cit ratio [2]: 0.548
CC[C@H](C)[C@H](NC(=O)[C@@H](N)CC(=O)O)C(=O)N[C@@H](CCSC)C(=O)N[C@@H](CCCNC(=N)N)C(=O)N[C@@H](CC(C)C)C(=O)N[C@@H](CCCNC(N)=O)C(=O)N[C@@H](CCC(=O)O)C(=O)N[C@@H](CCCCN)C(=O)N[C@@H](CC(C)C)C(=O)N[C@@H](CCC(N)=O)C(=O)N[C@@H](CCC(=O)O)C(=O)N[C@@H](CCC(=O)O)C(=O)N[C@@H](CCSC)C(=O)N[C@@H](CC(C)C)C(=O)N[C@@H](CCC(N)=O)C(=O)O [DIMRLXEKLQEEMLQ] (H-DIMRL[Cit]EKLQEEMLQ-OH)	729	> 40000	–	–	–
CC[C@H](C)[C@H](NC(=O)[C@@H](N)CC(=O)O)C(=O)N[C@@H](CCSC)C(=O)N[C@@H](CCCNC(N)=O)C(=O)N[C@@H](CC(C)C)C(=O)N[C@@H](CCCNC(=N)N)C(=O)N[C@@H](CCC(=O)O)C(=O)N[C@@H](CCCCN)C(=O)N[C@@H](CC(C)C)C(=O)N[C@@H](CCC(N)=O)C(=O)N[C@@H](CCC(=O)O)C(=O)N[C@@H](CCC(=O)O)C(=O)N[C@@H](CCSC)C(=O)N[C@@H](CC(C)C)C(=O)N[C@@H](CCC(N)=O)C(=O)O [DIMXLREKLQEEMLQ] (H-DIM[Cit]LREKLQEEMLQ-OH)	983	> 40000	–	–	–
CC(C)C[C@H](NC(=O)[C@H](CO)NC(=O)[C@H](C)NC(=O)[C@H](CC(N)=O)NC(=O)[C@@H](N)CC(=O)O)C(=O)N[C@@H](C)C(=O)N[C@@H](CCCNC(N)=O)C(=O)N[C@@H](CC(C)C)C(=O)N[C@@H](CC(=O)O)C(=O)N[C@@H](CC(C)C)C(=O)N[C@@H](CCC(=O)O)C(=O)N[C@@H](CCCNC(=N)N)C(=O)N[C@@H](CCCCN)C(=O)N[C@H](C(=O)N[C@@H](CCC(=O)O)C(=O)O)C(C)C [DNASLAXLDLERKVE] (H-DNASLA[Cit]LDLERKVE-OH)	16300	> 40000	–	–	–
CC[C@H](C)[C@H](NC(=O)[C@H](CC(=O)O)NC(=O)[C@H](CCC(=O)O)NC(=O)[C@H](C)NC(=O)[C@H](CC(C)C)NC(=O)[C@H](CC(N)=O)NC(=O)[C@@H](N)CC(=O)O)C(=O)N[C@@H](CCSC)C(=O)N[C@@H](CCCNC(=N)N)C(=O)N[C@@H](CC(C)C)C(=O)N[C@@H](CCCNC(N)=O)C(=O)N[C@@H](CCC(=O)O)C(=O)N[C@@H](CCCCN)C(=O)N[C@@H](CC(C)C)C(=O)N[C@@H](CCC(N)=O)C(=O)O [DNLAEDIMRLXEKLQ] (H-DNLAEDIMRL[Cit]EKLQ-OH)	1610	> 40000	–	–	–

Continued, in another order:

IC50 [1, 3] [nM]	IC50 [2, 4] [nM]	IC50 [1, 5] [nM]	IC50 [2, 6] [nM]	SMILES	other results
–	–	> 40000	> 40000	C[C@H](N)C(=O)N[C@@H](CCCNC(N)=O)C(=O)NCC(=O)N[C@@H](C)C(=O)N[C@@H](CCC(N)=O)C(=O)NCC(=O)N1CCC[C@H]1C(=O)N1CCC[C@H]1C(=O)NCC(=O)N[C@@H](C)C(=O)N[C@H](C(=O)NCC(=O)N[C@@H](Cc1ccccc1)C(=O)N1CCC[C@H]1C(=O)NCC(=O)O)[C@@H](C)O [AXGAQGPPGATGFPG] (H-A[Cit]GAQGPPGATGFPG-OH; N-terminus and C-terminus assumed)	DRB1*01:01 binding capacity, WT/cit ratio [1]: 0.7; DRB1*04:01 binding capacity, WT/cit ratio [2]: 1.0
–	–	> 40000	16600	CSCC[C@H](NC(=O)[C@H](CCC(N)=O)NC(=O)[C@H](CCCNC(N)=O)NC(=O)[C@H](CCC(=O)O)NC(=O)[C@H](CC(C)C)NC(=O)[C@H](CO)NC(=O)[C@H](CCC(=O)O)NC(=O)[C@H](CC(N)=O)NC(=O)[C@@H](NC(=O)CNC(=O)[C@H](CCCCN)NC(=O)[C@H](CC(C)C)NC(=O)[C@H](C)NC(=O)[C@@H](N)CC(=O)O)[C@@H](C)O)C(=O)N[C@@H](CCCNC(=N)N)C(=O)O [DALKGTNESLEXQMR] (H-DALKGTNESLE[Cit]QMR-OH)	–
–	–	> 40000	> 40000	C[C@H](NC(=O)CNC(=O)[C@H](CCCCN)NC(=O)[C@@H]1CCCN1C(=O)CNC(=O)[C@@H](N)CC(=O)O)C(=O)N[C@@H](CCCNC(=N)N)C(=O)NCC(=O)N[C@@H](CC(=O)O)C(=O)N[C@@H](CO)C(=O)NCC(=O)N1CCC[C@H]1C(=O)N1CCC[C@H]1C(=O)NCC(=O)N[C@@H](CCCNC(N)=O)C(=O)O [DGPKGARGDSGPPGX] (H-DGPKGARGDSGPPG[Cit]-OH; N-terminus and C-terminus assumed)	DRB1*04:01 binding capacity, WT/cit ratio [2]: 0.548
10900	> 40000	–	–	CC(C)C[C@H](NC(=O)[C@H](CO)NC(=O)[C@H](C)NC(=O)[C@H](CC(N)=O)NC(=O)[C@@H](N)CC(=O)O)C(=O)N[C@@H](C)C(=O)N[C@@H](CCCNC(=N)N)C(=O)N[C@@H](CC(C)C)C(=O)N[C@@H](CC(=O)O)C(=O)N[C@@H](CC(C)C)C(=O)N[C@@H](CCC(=O)O)C(=O)N[C@@H](CCCNC(N)=O)C(=O)N[C@@H](CCCCN)C(=O)N[C@H](C(=O)N[C@@H](CCC(=O)O)C(=O)O)C(C)C [DNASLARLDLEXKVE] (H-DNASLARLDLE[Cit]KVE-OH)	–
4690	> 40000	–	–	CC[C@H](C)[C@H](NC(=O)[C@H](CC(=O)O)NC(=O)[C@H](CCC(=O)O)NC(=O)[C@H](C)NC(=O)[C@H](CC(C)C)NC(=O)[C@H](CC(N)=O)NC(=O)[C@@H](N)CC(=O)O)C(=O)N[C@@H](CCSC)C(=O)N[C@@H](CCCNC(N)=O)C(=O)N[C@@H](CC(C)C)C(=O)N[C@@H](CCCNC(=N)N)C(=O)N[C@@H](CCC(=O)O)C(=O)N[C@@H](CCCCN)C(=O)N[C@@H](CC(C)C)C(=O)N[C@@H](CCC(N)=O)C(=O)O [DNLAEDIMXLREKLQ] (H-DNLAEDIM[Cit]LREKLQ-OH)	–
